Laboratory results reported in patent US20240002441A1, “PEPTIDES AND USES THEREOF IN MODULATION OF AMYLOID-BETA PROTEIN DEGRADING PROTEASES” (priority 2020, published 2024).

Key:
HEK293 cells = assay: Peptide stability study in HEK293 cells, LCMS (Example 4); assay type: in vitro ADME; details: peptide 9 μM, Opti-MEM, 60 min
Method: SEQ ID NO:2 was prepared as a C-terminal amidated analogue of SEQ ID NO:1. The stability of SEQ ID NO:1 and SEQ ID NO:2 was assessed in HEK293 and EA.hy926 cells grown in culture and their break down was monitored by LCMS over 60 min using the following procedure.
HEK293 (passage 24) or Ea.hy926 (passage 37) were seeded into tissue-culture-grade 96-well plates at a density of 20,000 cells/well. After 24 hr, cells were washed with PBS and replaced with Opti-MEM reduced serum media containing SEQ ID NO:1 or SEQ ID NO:2 (9 μM). Aliquots of equal volume were taken at T=0 and 60 min. SEQ ID NO:2 was added to control wells having media (no cells) only. Samples were immediately acidified in 0.1% TFA, snap frozen in dry ice and stored in −80° C. until analysed by LCMS.
Samples were analyzed by LC-MS/MS on a Shimadzu Nexera uHPLC (Japan) coupled to a Triple Tof 5600 mass spectrometer (ABSCIEX, Canada) equipped with a duo electrospray ion source. One μL of each extract was injected onto a 2.1 mm×100 mm Zorbax C18 1.8 um column (Agilent) at 200 μL/min. […] SEQ ID NO:1 and SEQ ID NO:2 were quantified using the […] doubly charged molecular ion from m/z 510.270 to 510.325. The data was acquired using Analyst TF 1.6 and quantification was carried out using MultiQuant 2.1.1 software (ABSCIEX, Canada).

NEP = molecular target: T1, NEP (Homo sapiens, UniProt P08473); assay: Cleavage of synthetic Aβ42 by NEP, LCMS (Example 7); assay type: biochemical; details: NEP 0.15 ng/μL, peptide 9 μM, Aβ42 0.05 μg/μL
T1 construct: purchased R & D systems 1182-ZNC-010
Method: Synthetic Aβ40 (0.10 μg/μL) was added to a reaction mixture containing NEP (0.05 ng/μL) pre-incubated with SEQ ID NO:2 or scrambled control (9 μM) for 1 h at 37° C. Synthetic Aβ42 (0.05 μg/μL) was added to a reaction mixture containing NEP (0.15 ng/μL) preincubated with either scrambled control or SEQ ID NO:2 (9 μM) for 1 h at 37° C. Samples containing enzyme alone had only NEP buffer (Table 2). The cleavage reaction was allowed to continue in a thermomixer at 37° C. Aliquots of equal volume were taken over 24 h. Aliquots were immediately acidified with 0.1% trifluoroacetic acid (TFA) to terminate enzyme activity and snap frozen in dry ice. Samples were stored at −80° C. until analysed by LCMS.
Samples were analysed by LC-MS/MS using a quadrupole TOF mass spectrometer (MicroTOFq, Bruker Daltonics, Bremen, Germany) coupled online with a 1200 series nano-HPLC (Agilent technologies, Santa Clara, CA, USA). Samples were injected onto a zorbax 300SB reversed phase trap column with 95% solvent A (0.1% formic acid) at a flow rate of 10 μL/minute. The peptides were eluted over a 10-min gradient to 70% solvent B (80% acetonitrile, 0.1% formic acid) and separated on a 15-cm, 75-μmID zorbax 300SB nanocolumn. The eluent was nebulised and ionised using the Bruker nano-ESI source with a capillary voltage of 4500 V, dry gas at 180° C., flow rate of 5 L/minute and nebuliser gas pressure at 300 mbar. […]

T1 sequence (P08473 whole entry): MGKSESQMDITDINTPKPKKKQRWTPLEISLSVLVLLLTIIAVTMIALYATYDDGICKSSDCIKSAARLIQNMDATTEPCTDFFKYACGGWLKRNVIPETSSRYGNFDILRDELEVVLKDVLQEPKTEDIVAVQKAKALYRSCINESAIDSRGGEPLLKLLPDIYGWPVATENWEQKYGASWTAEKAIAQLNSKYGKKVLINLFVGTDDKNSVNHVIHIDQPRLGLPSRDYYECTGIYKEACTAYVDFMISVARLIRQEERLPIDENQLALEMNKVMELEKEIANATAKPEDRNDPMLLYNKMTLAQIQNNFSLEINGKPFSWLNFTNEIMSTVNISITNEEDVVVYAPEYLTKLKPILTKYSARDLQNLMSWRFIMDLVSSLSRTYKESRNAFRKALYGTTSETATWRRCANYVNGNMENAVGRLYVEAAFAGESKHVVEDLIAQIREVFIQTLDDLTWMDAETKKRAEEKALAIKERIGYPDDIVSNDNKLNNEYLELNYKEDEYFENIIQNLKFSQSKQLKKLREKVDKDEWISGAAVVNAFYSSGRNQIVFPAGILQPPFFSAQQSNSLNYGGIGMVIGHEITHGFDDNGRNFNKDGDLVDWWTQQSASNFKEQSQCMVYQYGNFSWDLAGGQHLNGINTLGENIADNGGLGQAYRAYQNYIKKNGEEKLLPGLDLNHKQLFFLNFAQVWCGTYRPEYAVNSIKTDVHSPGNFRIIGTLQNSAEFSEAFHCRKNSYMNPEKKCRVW

Substance: H-SLFELGKMIL-NH2 [SEQ ID NO:2, H2N-SLFELGKMIL-NH2]
- amount remaining in the medium of HEK293 cells (HEK293 cells): 54%±4%
- amount of cleavage products Aβ1-12, Aβ1-16 and Aβ1-21 formed from Aβ42 over 24 h, compared with scrambled control (NEP): significantly higher
